Some test systems named below: NCI-H23; OVCAR-4; MCF7; UO-31; MDA-MB-435; SK-MEL-2; HOP-92; CAKI-1; K562; COLO 205; T47D; A498; RXF 393; SK-MEL-28; LOX IMVI; HT-29; CCRF-CEM.
Common to all, as to assay: inhibition of tumour cell growth, NCI panel, 48 h

These results are taken from ChEMBL document CHEMBL1201862, “PubChem BioAssay data set” (2004).

Structures are written as SMILES.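 Compound exposure: 48 hours, 5 concentrations, 96-well plates. At the GI50, growth is halved.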 The source made the active and inactive calls. No stated cut-off is given here; in the data, active = GI50 up to about 1.1 µM and inactive = higher.

`NCCCN(CCCCN(CCCN)CCCc1ccccc1)CCCc1ccccc1`: the GI50 was 4.32 µM (inactive) in the assay with NCI-H23; 4.89 µM (inactive) with OVCAR-4; 1.96 µM (inactive) in the assay on MCF7; 2.19 µM (inactive) with UO-31; 1.74 µM (inactive) in the assay with MDA-MB-435; 1.69 µM (inactive) in the assay on SK-MEL-2. For the same compound, the GI50 with HOP-92 was 6.97 µM (inactive); with CAKI-1, 2.15 µM (inactive); in the assay with K562, 1.77 µM (inactive); in the assay with COLO 205, 1.56 µM (inactive); in the assay on T47D, 6.84 µM (inactive); in the assay on A498 it was 13.1 µM (inactive). Also, the GI50 was 2.37 µM (inactive) in the assay on RXF 393; 1.51 µM (inactive) in the assay with SK-MEL-28; 2.36 µM (inactive) in the assay on LOX IMVI; 1.85 µM (inactive) in the assay on HT-29; 2.49 µM (inactive) in the assay with CCRF-CEM.
As to `O=c1[nH]c(=S)[nH]cc1CN1CCOCC1`, the GI50 in the assay with NCI-H23, with OVCAR-4, with MCF7, in the assay on UO-31, with MDA-MB-435 and in the assay on SK-MEL-2 was > 100 µM (inactive) each time. Further, the GI50 in the assay on HOP-92, with CAKI-1, in the assay with K562, with COLO 205, with T47D and with A498 was > 100 µM (inactive) in each case. In addition, the GI50 with RXF 393, in the assay on SK-MEL-28, in the assay with LOX IMVI, with HT-29 and in the assay on CCRF-CEM was > 100 µM (inactive) in each case.
`COC(=O)c1cc(C#N)[nH]c1-c1ccsc1`: the GI50 in the assay with NCI-H23 was > 100 µM (inactive); in the assay on OVCAR-4, > 100 µM (inactive); in the assay on MCF7, 10 µM (inactive); in the assay with UO-31, 46.3 µM (inactive); with MDA-MB-435, > 100 µM (inactive); with SK-MEL-2 it was > 100 µM (inactive). Further, the GI50 in the assay on HOP-92 is > 100 µM (inactive); in the assay on CAKI-1 it was 51.2 µM (inactive); in the assay with K562 it was 53.1 µM (inactive); with COLO 205, > 100 µM (inactive); in the assay on T47D it was 25.1 µM (inactive); with A498, 95.5 µM (inactive). Also, the GI50 in the assay with RXF 393 was 72.4 µM (inactive); in the assay on SK-MEL-28, > 100 µM (inactive); in the assay on LOX IMVI, > 100 µM (inactive); with HT-29, > 100 µM (inactive); in the assay with CCRF-CEM, 76.2 µM (inactive).
With `COc1cnc2oc3ccc(O)cc3c2c1-c1ccccc1`, the GI50 was 44.7 µM (inactive) in the assay with NCI-H23; > 100 µM (inactive) with OVCAR-4; 39.7 µM (inactive) in the assay with MCF7; 66.7 µM (inactive) in the assay on UO-31; > 100 µM (inactive) in the assay with MDA-MB-435; > 100 µM (inactive) with SK-MEL-2. Also, the GI50 in the assay with HOP-92 is > 100 µM (inactive); in the assay on CAKI-1, > 100 µM (inactive); in the assay with K562 it was 22.1 µM (inactive); with COLO 205 it was 30.6 µM (inactive); in the assay on T47D, 3.65 µM (inactive); in the assay on A498, > 100 µM (inactive). Moreover, the GI50 was > 100 µM (inactive) in the assay with RXF 393; > 100 µM (inactive) with SK-MEL-28; > 100 µM (inactive) with LOX IMVI; 85.1 µM (inactive) with HT-29; 59.3 µM (inactive) with CCRF-CEM.
For `C#CCn1c(=O)c2cc(OC)c(OC)cc2n(CC#C)c1=O`, the GI50 in the assay on NCI-H23, in the assay on OVCAR-4, in the assay with MCF7, in the assay on UO-31, in the assay with MDA-MB-435 and in the assay with SK-MEL-2 was > 10 µM (inactive) throughout. Besides, the GI50 with HOP-92, in the assay with CAKI-1, in the assay on K562, in the assay on COLO 205, with T47D and in the assay with A498 was > 10 µM (inactive) in each case. The GI50 in the assay on RXF 393, with SK-MEL-28, with LOX IMVI, in the assay on HT-29 and in the assay with CCRF-CEM was > 10 µM (inactive) throughout.
Regarding `CN(C)c1ccc(/C=C2\N=C(NN)NC2=O)cc1`, the GI50 was > 100 µM (inactive) in the assay on NCI-H23; 79.4 µM (inactive) with OVCAR-4; 54.8 µM (inactive) in the assay with MCF7; 94.6 µM (inactive) with UO-31; 58.6 µM (inactive) in the assay with MDA-MB-435; > 100 µM (inactive) in the assay on SK-MEL-2. In addition, the GI50 in the assay on HOP-92 was 59.8 µM (inactive); in the assay with CAKI-1 it was > 100 µM (inactive); with K562 it was 10.1 µM (inactive); in the assay on COLO 205, > 100 µM (inactive); with T47D, 44.4 µM (inactive); in the assay with A498 it was 98.2 µM (inactive). In addition, the GI50 is 63.5 µM (inactive) in the assay on RXF 393; > 100 µM (inactive) in the assay on SK-MEL-28; 35.3 µM (inactive) in the assay on LOX IMVI; 31.3 µM (inactive) with HT-29; 65.8 µM (inactive) in the assay on CCRF-CEM.
Turning to `Cc1cc(O)c2c(c1)CC(O)C1=C2C(=O)c2c(O)ccc(OC3CC(O)C(OC4CC(OC5CCC(O)C(C)O5)C(O)C(C)O4)C(C)O3)c2C1=O` (centres undefined), the GI50 is 1.83 µM (inactive) in the assay on NCI-H23; 1.79 µM (inactive) in the assay with OVCAR-4; 1.39 µM (inactive) in the assay on MCF7; 1.5 µM (inactive) in the assay on UO-31; 1.03 µM (active) with MDA-MB-435; 1.58 µM (inactive) with SK-MEL-2. In addition, the GI50 was 1.86 µM (inactive) in the assay with HOP-92; 1.71 µM (inactive) in the assay on CAKI-1; 1.63 µM (inactive) in the assay with K562; 1.39 µM (inactive) in the assay with COLO 205; 2.15 µM (inactive) with T47D; 2.33 µM (inactive) in the assay on A498. Moreover, the GI50 was 1.46 µM (inactive) in the assay with RXF 393; 1.92 µM (inactive) in the assay with SK-MEL-28; 1.33 µM (inactive) in the assay on LOX IMVI; 2.27 µM (inactive) in the assay on HT-29; 0.203 µM (active) with CCRF-CEM.
For `O=C1CSC2(CC(/C=C/c3ccccc3[N+](=O)[O-])=NN2c2cccc(S(=O)(=O)O)c2)N1c1nc2ccccc2s1` (centres undefined), the GI50 with NCI-H23 was 16.9 µM (inactive); in the assay on OVCAR-4, 15.3 µM (inactive); with MCF7 it was 12.5 µM (inactive); in the assay on UO-31, 14.2 µM (inactive); with MDA-MB-435, 14.8 µM (inactive); with SK-MEL-2 it was 15.2 µM (inactive). Further, the GI50 in the assay with HOP-92 was 25.5 µM (inactive); in the assay on CAKI-1 it was 32.7 µM (inactive); with K562 it was 19.5 µM (inactive); in the assay on COLO 205, 33.1 µM (inactive); in the assay on T47D it was 12.8 µM (inactive); in the assay with A498, 18.2 µM (inactive). The GI50 is 23.8 µM (inactive) with RXF 393; 38 µM (inactive) in the assay with SK-MEL-28; 16.4 µM (inactive) in the assay with LOX IMVI; 23.8 µM (inactive) in the assay with HT-29; 17.9 µM (inactive) in the assay with CCRF-CEM.
Turning to `O=C1C=C(Nc2ccc(Br)cc2)c2ccccc2/C1=N/O`, the GI50 with NCI-H23 was 1.28 µM (inactive); with OVCAR-4 it was 6.84 µM (inactive); with MCF7, 4.16 µM (inactive); in the assay on UO-31, 6.64 µM (inactive); with MDA-MB-435, 1.83 µM (inactive); in the assay on SK-MEL-2 it was 1.5 µM (inactive). Besides, the GI50 was 17.6 µM (inactive) in the assay with HOP-92; 6.52 µM (inactive) in the assay on CAKI-1; 8.71 µM (inactive) in the assay with K562; 4.78 µM (inactive) with COLO 205; 13.6 µM (inactive) in the assay with T47D; 5.81 µM (inactive) in the assay with A498. For the same compound, the GI50 with RXF 393 is 16.4 µM (inactive); in the assay with SK-MEL-28, 2 µM (inactive); with LOX IMVI, 2.18 µM (inactive); in the assay on HT-29, 12.1 µM (inactive); in the assay on CCRF-CEM, 23.6 µM (inactive).
Turning to `CCN(CC)CCNC(=O)c1cn2c(ccc3sc4ccccc4c(=O)c32)n1`, the GI50 is 11.2 µM (inactive) in the assay with NCI-H23; 7.89 µM (inactive) in the assay with OVCAR-4; 5.87 µM (inactive) in the assay with MCF7; 7.03 µM (inactive) with UO-31; 16.7 µM (inactive) with MDA-MB-435; 21 µM (inactive) in the assay with SK-MEL-2. In addition, the GI50 in the assay on HOP-92 is 8.91 µM (inactive); with CAKI-1, 10 µM (inactive); in the assay with K562, 6.28 µM (inactive); in the assay on COLO 205, 6.25 µM (inactive); in the assay on T47D it was 14.5 µM (inactive); with A498 it was 15.3 µM (inactive). The GI50 in the assay with RXF 393 is 8.22 µM (inactive); in the assay on SK-MEL-28 it was 10.4 µM (inactive); in the assay on LOX IMVI it was 9.18 µM (inactive); with HT-29, 6.89 µM (inactive); in the assay on CCRF-CEM, 2.74 µM (inactive).
For `Clc1cc(OC2C3CC4CC(C3)CC2C4)nc(Cl)n1` (centres undefined), the GI50 in the assay on NCI-H23 is 14.8 µM (inactive); with OVCAR-4 it was 17.1 µM (inactive); in the assay on MCF7, 18.3 µM (inactive); in the assay on UO-31, 2.88 µM (inactive); in the assay with MDA-MB-435, 17.4 µM (inactive); in the assay with SK-MEL-2 it was 12 µM (inactive). In addition, the GI50 in the assay with HOP-92 is 1.64 µM (inactive); with CAKI-1 it was 0.723 µM (active); with K562, 4.62 µM (inactive); in the assay with COLO 205, 18.6 µM (inactive); in the assay on T47D, 20.1 µM (inactive); in the assay on A498, 19.1 µM (inactive). The GI50 with RXF 393 is 12.8 µM (inactive); in the assay on SK-MEL-28, 15 µM (inactive); in the assay with LOX IMVI, 3.86 µM (inactive); in the assay with HT-29, 15.4 µM (inactive); in the assay on CCRF-CEM, 16.7 µM (inactive).
On to `COC(=O)C1C(=O)C(C(=O)OC)C2CCC1N2C` (centres undefined), for which the GI50 is 0.571 µM (active) with NCI-H23; 39.8 µM (inactive) with OVCAR-4; 33.6 µM (inactive) with MCF7; 59.8 µM (inactive) in the assay with UO-31; 24.8 µM (inactive) with MDA-MB-435; 20 µM (inactive) in the assay with SK-MEL-2. Also, the GI50 in the assay with HOP-92 was 16 µM (inactive); in the assay with CAKI-1, 92.5 µM (inactive); in the assay on K562 it was 31.8 µM (inactive); in the assay on COLO 205, > 100 µM (inactive); with T47D, 30.7 µM (inactive); in the assay on A498, 76.9 µM (inactive). In addition, the GI50 in the assay on RXF 393 is 24.9 µM (inactive); with SK-MEL-28, 34.4 µM (inactive); in the assay on LOX IMVI it was 35.4 µM (inactive); in the assay on HT-29, 35 µM (inactive); in the assay with CCRF-CEM it was 15.8 µM (inactive).
